Test results published in the NIST ThermoML archive (doi:10.1016/j.fluid.2015.09.010).
± gives the expanded uncertainty stated by the source.

Test: xn = mol fraction of the nth substance listed
Conditions: Gas, single sinker densimeter

Compound `F/C=C/C(F)(F)F` [trans-1,3,3,3-tetrafluoropropene] + CCC has a mass density (283.19 K, 198.03 kPa, x1 = 0.168) of 4.884 ± 0.011 kg/m3, a mass density (283.19 K, 220.83 kPa, x1 = 0.5076) of 7.8406 ± 0.016 kg/m3 and a mass density (283.19 K, 312.57 kPa, x1 = 0.168) of 7.9025 ± 0.013 kg/m3. It also gave a mass density (283.19 K, 369.65 kPa, x1 = 0.5076) of 13.6268 ± 0.018 kg/m3, a mass density (283.19 K, 411.95 kPa, x1 = 0.168) of 10.6601 ± 0.015 kg/m3 and a mass density (283.19 K, 498.32 kPa, x1 = 0.5076) of 19.0511 ± 0.02 kg/m3. The mass density (283.19 K, 515.38 kPa, x1 = 0.168) was 13.6875 ± 0.018 kg/m3, the mass density (283.19 K, 612.31 kPa, x1 = 0.168) was 16.7013 ± 0.018 kg/m3 and the mass density (283.2 K, 100.73 kPa, x1 = 0.679) was 4.0148 ± 0.017 kg/m3. For the same compound, the mass density (283.2 K, 101.73 kPa, x1 = 0.5076) was 3.5184 ± 0.015 kg/m3, the mass density (283.2 K, 202.42 kPa, x1 = 0.679) was 8.2655 ± 0.018 kg/m3 and the mass density (283.2 K, 307.97 kPa, x1 = 0.679) was 12.9389 ± 0.02 kg/m3. The mass density (283.21 K, 409.61 kPa, x1 = 0.679) was 17.7339 ± 0.021 kg/m3, the mass density (283.23 K, 209.78 kPa, x1 = 0.8949) was 10.0762 ± 0.021 kg/m3 and the mass density (283.23 K, 328.84 kPa, x1 = 0.8949) was 16.4078 ± 0.023 kg/m3. For the same compound, the mass density (283.24 K, 102.25 kPa, x1 = 0.8949) was 4.7652 ± 0.02 kg/m3, the mass density (288.24 K, 101.08 kPa, x1 = 0.3426) was 2.9277 ± 0.013 kg/m3 and the mass density (288.24 K, 229.6 kPa, x1 = 0.3426) was 6.8193 ± 0.013 kg/m3. It also gave a mass density (288.25 K, 344.87 kPa, x1 = 0.3426) of 10.4999 ± 0.015 kg/m3, a mass density (288.25 K, 452.7 kPa, x1 = 0.3426) of 14.1363 ± 0.017 kg/m3 and a mass density (288.25 K, 583.57 kPa, x1 = 0.3426) of 18.8469 ± 0.02 kg/m3. The mass density (288.25 K, 689.73 kPa, x1 = 0.3426) was 22.9563 ± 0.022 kg/m3, the mass density (288.26 K, 595.72 kPa, x1 = 0.168) was 15.7412 ± 0.017 kg/m3 and the mass density (288.26 K, 711.04 kPa, x1 = 0.168) was 19.385 ± 0.02 kg/m3. For the same compound, the mass density (288.27 K, 213.38 kPa, x1 = 0.168) was 5.1751 ± 0.011 kg/m3, the mass density (288.27 K, 334.82 kPa, x1 = 0.168) was 8.3244 ± 0.013 kg/m3 and the mass density (288.27 K, 445.46 kPa, x1 = 0.168) was 11.3478 ± 0.015 kg/m3. The mass density (288.28 K, 101.56 kPa, x1 = 0.168) was 2.4124 ± 0.01 kg/m3, the mass density (288.29 K, 101.07 kPa, x1 = 0.5076) was 3.4268 ± 0.015 kg/m3 and the mass density (288.29 K, 220.99 kPa, x1 = 0.5076) was 7.6809 ± 0.015 kg/m3. It also gave a mass density (288.29 K, 444.05 kPa, x1 = 0.5076) of 16.2865 ± 0.019 kg/m3, a mass density (288.29 K, 578.73 kPa, x1 = 0.5076) of 22.0366 ± 0.022 kg/m3 and a mass density (288.3 K, 101.4 kPa, x1 = 0.679) of 3.9663 ± 0.017 kg/m3. The mass density (288.3 K, 227.2 kPa, x1 = 0.679) was 9.1436 ± 0.018 kg/m3, the mass density (288.3 K, 333.95 kPa, x1 = 0.5076) was 11.9154 ± 0.017 kg/m3 and the mass density (288.31 K, 348.56 kPa, x1 = 0.679) was 14.4714 ± 0.02 kg/m3. For the same compound, the mass density (288.31 K, 484.09 kPa, x1 = 0.679) was 20.8941 ± 0.022 kg/m3, the mass density (288.32 K, 385.31 kPa, x1 = 0.8949) was 19.104 ± 0.023 kg/m3 and the mass density (288.34 K, 101.12 kPa, x1 = 0.8949) was 4.6234 ± 0.02 kg/m3. For the same compound, the mass density (288.34 K, 236.83 kPa, x1 = 0.8949) was 11.2187 ± 0.021 kg/m3, the mass density (293.25 K, 588.13 kPa, x1 = 0.3426) was 18.534 ± 0.019 kg/m3 and the mass density (293.25 K, 709.61 kPa, x1 = 0.3426) was 23.0845 ± 0.022 kg/m3. It also gave a mass density (293.26 K, 208.73 kPa, x1 = 0.3426) of 6.0545 ± 0.013 kg/m3, a mass density (293.26 K, 452.62 kPa, x1 = 0.3426) of 13.8135 ± 0.016 kg/m3 and a mass density (293.27 K, 101.3 kPa, x1 = 0.3426) of 2.8816 ± 0.012 kg/m3. For the same compound, the mass density (293.27 K, 329.2 kPa, x1 = 0.3426) was 9.782 ± 0.014 kg/m3, the mass density (293.28 K, 208.37 kPa, x1 = 0.5076) was 7.0836 ± 0.015 kg/m3 and the mass density (293.28 K, 290.55 kPa, x1 = 0.168) was 7.0037 ± 0.012 kg/m3. The mass density (293.28 K, 407.44 kPa, x1 = 0.168) was 10.0558 ± 0.014 kg/m3, the mass density (293.29 K, 98.9 kPa, x1 = 0.5076) was 3.2914 ± 0.014 kg/m3 and the mass density (293.29 K, 100.13 kPa, x1 = 0.168) was 2.3324 ± 0.01 kg/m3. The mass density (293.29 K, 198.29 kPa, x1 = 0.168) was 4.6983 ± 0.011 kg/m3, the mass density (293.29 K, 317.13 kPa, x1 = 0.5076) was 11.031 ± 0.017 kg/m3 and the mass density (293.29 K, 429.96 kPa, x1 = 0.5076) was 15.3484 ± 0.018 kg/m3. For the same compound, the mass density (293.29 K, 515.52 kPa, x1 = 0.168) was 13.0247 ± 0.015 kg/m3, the mass density (293.29 K, 530.45 kPa, x1 = 0.5076) was 19.4174 ± 0.021 kg/m3 and the mass density (293.29 K, 612.66 kPa, x1 = 0.168) was 15.8319 ± 0.017 kg/m3. It also gave a mass density (293.29 K, 715.58 kPa, x1 = 0.168) of 18.9724 ± 0.02 kg/m3, a mass density (293.29 K, 825.52 kPa, x1 = 0.168) of 22.5539 ± 0.02 kg/m3 and a mass density (293.3 K, 210.11 kPa, x1 = 0.679) of 8.2494 ± 0.017 kg/m3. It also gave a mass density (293.3 K, 641.29 kPa, x1 = 0.5076) of 24.1912 ± 0.022 kg/m3, a mass density (293.31 K, 101.19 kPa, x1 = 0.679) of 3.8833 ± 0.016 kg/m3 and a mass density (293.31 K, 324.6 kPa, x1 = 0.679) of 13.0914 ± 0.019 kg/m3. The mass density (293.32 K, 432.86 kPa, x1 = 0.679) was 17.9448 ± 0.021 kg/m3, the mass density (293.32 K, 546.41 kPa, x1 = 0.679) was 23.3906 ± 0.023 kg/m3 and the mass density (293.34 K, 454.67 kPa, x1 = 0.8949) was 22.4737 ± 0.024 kg/m3. It also gave a mass density (293.35 K, 100.25 kPa, x1 = 0.8949) of 4.4951 ± 0.019 kg/m3, a mass density (293.35 K, 226.08 kPa, x1 = 0.8949) of 10.452 ± 0.02 kg/m3 and a mass density (293.35 K, 345.6 kPa, x1 = 0.8949) of 16.5159 ± 0.022 kg/m3.
